As usually defined, the IC50 is the midpoint of a concentration-inhibition curve. The term EC50 denotes the midpoint of the concentration-response curve. A lower EC50 goes with greater potency.

Here are results for 17 molecules from patent US11753395B2 (Kinnate Biopharma Inc., priority 2021, dated 2023).

Experiment [1] deals with T1, MET (Homo sapiens, UniProt P08581).
T1 construct: purchased Carna Biosciences 08-151
In words: MET Mobility Shift Assay. The following applies: biochemical assay IC50; 100 μM ATP, 60 minute kinase reaction. As for the experimental part:
(§1) Small molecule inhibition of MET kinase activity was evaluated using a fluorescence-based microfluidic mobility shift assay. MET catalyzes the production of ADP from ATP during phosphoryl transfer to the substrate peptide, FLPeptide30 (5-FAM-KKKKEEIYFFF-CONH2) (Perkin Elmer, 760430). MET enzme (Carna Biosciences, 08-151) at 0.625 nM was prepared with 10 mM MgCl2 and 1.5 μM substrate peptide in a buffer containing 50 mM HEPES, 1 mM EGTA, 0.01% Brij-35, 0.05% BSA, and 2 mM DTT and pre-incubated at room temperature for 30 min prior to the start of the reaction. 100 μM ATP was added to start the reaction. The mobility shift assay electrophoretically separates the fluorescently labeled peptides (substrate and phosphorylated product) following the 60 minute kinase reaction. The reaction was terminated by addition of 0.5 M EDTA. Both substrate and product were measured and the ratio of these values used to generate % conversion of substrate to product by the LabChip EZ reader (Perkin Elmer). ICso values were calculated using the inhibition of conversion ratio using Dotmatics Knowledge Solutions Studies curve fitting environment (Dotmatics, Bishops Stortford, UK, CM23) and are presented in Table 2.

The target of experiment [2] is T2, MET D1228N (Homo sapiens, UniProt P08581, D1228N).
T2 construct: purchased Signalchem M52-12IG
Kind of experiment: MET D1228N Mobility Shift Assay. The following applies: biochemical assay IC50; 100 μM ATP, 60 minute kinase reaction. As for the experimental part: as §1, with “MET D1228N” for “MET”, “a fluorescence -based” for “a fluorescence-based”, “FLPeptide30 (5-FAM-KKKKEEIYFFF -CONH2)” for “FLPeptide30 (5-FAM-KKKKEEIYFFF-CONH2)”, “MET D1228N enzyme (Signalchem, M52-12IG)” for “MET enzme (Carna Biosciences, 08-151)”, “at 0.313” for “at 0.625”

Experiment [3] concerns the target T3, Ba/F3-TPR-MET cells (Homo sapiens, UniProt P08581).
T3 construct: fused on or other part: P12270 (Nucleoprotein TPR)
Kind of experiment: CellTiter-Glo Cell Viability Assay, Ba/F3-TPR-MET. Format: cell-based. The following applies: 72 hours. As for the experimental part: (§2) Ba/F3-TPR-MET and Ba/F3-TPR-MET-D1228N cells were seeded at 3000 cells per well in a 96 well plate in 90 μL growth media and allowed to incubate overnight at 37° C. with 5% CO2. The following day, compounds were serially diluted from a 10 mM top dose for a 9-point 3-fold dilution curve in DMSO. Following a 100-fold dilution in growth media, a further 10-fold dilution was made into the cell plate for a final volume of 100 μL and 0.1% DMSO. Compounds and cells were incubated together for 72 hours at 37° C. with 5% CO2. The CellTiter-Glo® 2.0 Assay determines the number of viable cells in culture by quantifying ATP, which indicates the presence of metabolically active cells. Luminescence readout is directly proportional to the number of viable cells in culture. CellTiter-Glo reagent (Promega, G9243) and cell plates were allowed to equilibrate to room temperature for at least 15 min, then 100 μL of CellTiter-Glo was added to each well for a 1:1 ratio of reagent to media. Samples were placed on a shaker for 2 min prior to a 30 min incubation at room temperature protected from light. Luminescence was read on a Perkin Elmer Envision plate reader 2105 and used to calculate ICso values within the Dotmatics Knowledge Solutions Studies curve fitting environment (Dotmatics, Bishops Stortford, UK, CM23) and are presented in Table 2.
For orientation: Cellular ATP, detected with luciferase, serves as a proxy for viable cell number.

The target in experiment [4] is T4, Ba/F3-TPR-MET-D1228N cells (Homo sapiens, UniProt P08581, D1228N, cells depend on it).
T4 construct: fused on or other part: P12270 (Nucleoprotein TPR)
Kind of experiment: CellTiter-Glo Cell Viability Assay, Ba/F3-TPR-MET-D1228N. Format: cell-based. The following applies: 72 hours. As for the experimental part: as §2

T4 sequence (P08581 whole entry D1228N, the tested form may be a part): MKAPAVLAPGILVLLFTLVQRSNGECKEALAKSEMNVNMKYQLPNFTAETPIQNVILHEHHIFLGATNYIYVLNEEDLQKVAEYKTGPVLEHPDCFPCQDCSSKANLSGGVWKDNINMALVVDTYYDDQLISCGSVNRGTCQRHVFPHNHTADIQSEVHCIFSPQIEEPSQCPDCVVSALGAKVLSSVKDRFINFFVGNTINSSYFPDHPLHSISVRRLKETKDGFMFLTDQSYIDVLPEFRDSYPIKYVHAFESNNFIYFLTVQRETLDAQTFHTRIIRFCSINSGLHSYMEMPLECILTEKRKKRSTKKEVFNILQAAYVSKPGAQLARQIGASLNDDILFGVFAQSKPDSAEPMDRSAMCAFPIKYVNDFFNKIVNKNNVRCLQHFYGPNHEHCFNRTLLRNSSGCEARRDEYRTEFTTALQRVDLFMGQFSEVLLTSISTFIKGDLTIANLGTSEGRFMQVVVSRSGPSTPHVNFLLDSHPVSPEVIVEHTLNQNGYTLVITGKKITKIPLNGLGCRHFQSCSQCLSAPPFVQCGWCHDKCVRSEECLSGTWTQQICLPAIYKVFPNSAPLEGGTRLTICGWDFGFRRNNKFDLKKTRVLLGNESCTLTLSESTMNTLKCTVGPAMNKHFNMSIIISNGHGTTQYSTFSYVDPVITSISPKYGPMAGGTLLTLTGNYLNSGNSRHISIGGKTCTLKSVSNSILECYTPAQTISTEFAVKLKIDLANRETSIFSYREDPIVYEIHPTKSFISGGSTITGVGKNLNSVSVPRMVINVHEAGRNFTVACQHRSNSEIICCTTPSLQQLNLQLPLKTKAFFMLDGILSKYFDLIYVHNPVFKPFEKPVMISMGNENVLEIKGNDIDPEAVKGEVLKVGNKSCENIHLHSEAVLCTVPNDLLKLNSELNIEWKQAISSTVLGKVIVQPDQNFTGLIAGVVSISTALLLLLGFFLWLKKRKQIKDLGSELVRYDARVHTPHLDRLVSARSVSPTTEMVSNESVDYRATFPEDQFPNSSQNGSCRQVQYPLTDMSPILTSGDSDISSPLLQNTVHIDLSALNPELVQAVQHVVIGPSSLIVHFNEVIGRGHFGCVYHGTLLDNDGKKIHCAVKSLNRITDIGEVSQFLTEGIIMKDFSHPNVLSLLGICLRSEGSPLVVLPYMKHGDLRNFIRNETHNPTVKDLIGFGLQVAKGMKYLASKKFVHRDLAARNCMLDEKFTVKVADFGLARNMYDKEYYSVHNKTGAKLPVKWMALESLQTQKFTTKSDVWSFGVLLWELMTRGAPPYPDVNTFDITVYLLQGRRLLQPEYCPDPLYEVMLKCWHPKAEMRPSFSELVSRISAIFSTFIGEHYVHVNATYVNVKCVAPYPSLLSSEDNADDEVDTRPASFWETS
T3 sequence (P08581 whole entry, change not shown, the tested form may be a part): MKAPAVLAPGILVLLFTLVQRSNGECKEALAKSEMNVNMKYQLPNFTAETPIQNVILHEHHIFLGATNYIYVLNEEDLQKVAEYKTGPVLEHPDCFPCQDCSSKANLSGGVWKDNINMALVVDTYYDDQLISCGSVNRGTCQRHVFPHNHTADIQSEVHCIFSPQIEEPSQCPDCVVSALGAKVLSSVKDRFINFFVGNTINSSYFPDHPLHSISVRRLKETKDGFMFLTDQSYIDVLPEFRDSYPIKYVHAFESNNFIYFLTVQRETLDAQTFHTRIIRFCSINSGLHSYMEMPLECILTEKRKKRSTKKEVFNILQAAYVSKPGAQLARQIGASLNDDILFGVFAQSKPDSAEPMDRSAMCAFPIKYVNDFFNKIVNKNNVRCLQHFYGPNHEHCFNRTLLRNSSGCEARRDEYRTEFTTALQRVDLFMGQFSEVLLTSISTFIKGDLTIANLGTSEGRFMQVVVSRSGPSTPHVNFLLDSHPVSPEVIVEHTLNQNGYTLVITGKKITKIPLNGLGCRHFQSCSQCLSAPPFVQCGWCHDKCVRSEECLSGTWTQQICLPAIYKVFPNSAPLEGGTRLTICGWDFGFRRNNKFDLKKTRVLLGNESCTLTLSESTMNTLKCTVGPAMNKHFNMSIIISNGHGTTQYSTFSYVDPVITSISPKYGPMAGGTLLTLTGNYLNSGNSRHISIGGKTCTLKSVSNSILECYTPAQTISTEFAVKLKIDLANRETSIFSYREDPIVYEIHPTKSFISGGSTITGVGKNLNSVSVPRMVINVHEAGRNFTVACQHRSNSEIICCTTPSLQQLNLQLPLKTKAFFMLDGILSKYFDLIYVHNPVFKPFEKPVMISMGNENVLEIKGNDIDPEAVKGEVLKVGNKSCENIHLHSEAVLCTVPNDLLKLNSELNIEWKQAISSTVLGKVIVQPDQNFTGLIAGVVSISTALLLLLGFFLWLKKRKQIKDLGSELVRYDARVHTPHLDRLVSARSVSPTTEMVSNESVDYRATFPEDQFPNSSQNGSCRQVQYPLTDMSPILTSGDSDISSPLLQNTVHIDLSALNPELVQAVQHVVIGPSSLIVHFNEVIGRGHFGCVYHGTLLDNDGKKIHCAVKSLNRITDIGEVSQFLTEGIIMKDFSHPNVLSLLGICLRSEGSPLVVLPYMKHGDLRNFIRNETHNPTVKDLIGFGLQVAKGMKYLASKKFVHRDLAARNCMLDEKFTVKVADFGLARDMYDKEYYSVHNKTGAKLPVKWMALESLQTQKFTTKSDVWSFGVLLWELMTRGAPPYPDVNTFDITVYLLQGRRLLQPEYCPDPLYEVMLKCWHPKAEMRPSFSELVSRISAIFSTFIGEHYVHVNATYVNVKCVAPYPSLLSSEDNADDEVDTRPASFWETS
T2 sequence (P08581 25-1390 D1228N): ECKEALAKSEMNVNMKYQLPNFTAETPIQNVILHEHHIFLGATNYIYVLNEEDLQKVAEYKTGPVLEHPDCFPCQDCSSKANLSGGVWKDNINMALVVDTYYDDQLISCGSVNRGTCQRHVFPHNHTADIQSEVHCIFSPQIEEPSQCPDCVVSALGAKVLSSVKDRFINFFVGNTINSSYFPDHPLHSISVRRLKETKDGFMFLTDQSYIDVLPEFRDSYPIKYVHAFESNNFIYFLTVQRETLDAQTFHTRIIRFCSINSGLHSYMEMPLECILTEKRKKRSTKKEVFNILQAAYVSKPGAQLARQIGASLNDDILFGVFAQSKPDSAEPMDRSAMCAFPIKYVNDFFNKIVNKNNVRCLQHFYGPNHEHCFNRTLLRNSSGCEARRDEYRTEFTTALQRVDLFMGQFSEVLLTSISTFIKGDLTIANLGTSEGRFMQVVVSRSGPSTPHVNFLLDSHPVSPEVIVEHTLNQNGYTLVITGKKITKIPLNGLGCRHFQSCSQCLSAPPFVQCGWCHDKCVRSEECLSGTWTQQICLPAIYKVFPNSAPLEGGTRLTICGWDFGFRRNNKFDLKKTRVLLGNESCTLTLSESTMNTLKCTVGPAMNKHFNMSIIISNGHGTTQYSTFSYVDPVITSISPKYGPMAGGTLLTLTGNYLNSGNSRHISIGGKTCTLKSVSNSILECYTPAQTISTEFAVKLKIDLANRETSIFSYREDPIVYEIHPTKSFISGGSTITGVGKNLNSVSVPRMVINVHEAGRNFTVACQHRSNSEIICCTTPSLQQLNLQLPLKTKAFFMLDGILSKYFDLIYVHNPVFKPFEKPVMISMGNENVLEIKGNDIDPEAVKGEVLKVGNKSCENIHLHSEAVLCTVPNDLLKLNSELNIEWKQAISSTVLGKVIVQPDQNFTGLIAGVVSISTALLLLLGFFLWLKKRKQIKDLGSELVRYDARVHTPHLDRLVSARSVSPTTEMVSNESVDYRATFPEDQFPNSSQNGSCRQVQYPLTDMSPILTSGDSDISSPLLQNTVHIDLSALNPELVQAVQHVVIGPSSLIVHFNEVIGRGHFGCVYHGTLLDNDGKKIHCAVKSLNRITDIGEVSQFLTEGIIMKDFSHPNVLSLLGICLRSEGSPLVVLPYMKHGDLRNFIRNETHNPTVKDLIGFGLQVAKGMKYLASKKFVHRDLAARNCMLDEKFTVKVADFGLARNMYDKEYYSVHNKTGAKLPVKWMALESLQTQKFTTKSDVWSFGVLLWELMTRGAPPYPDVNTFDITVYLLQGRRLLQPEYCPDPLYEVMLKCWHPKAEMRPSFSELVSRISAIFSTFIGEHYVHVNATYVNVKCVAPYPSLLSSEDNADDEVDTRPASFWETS

With `CNCCOc1cc2nccc(Oc3c(F)cc(NC(=O)c4cnccc4OC(C)C)cc3F)c2cc1OC` [Example 59, N-[3,5-difluoro-4-({6-methoxy-7-[2-(methylamino)ethoxy]quinolin-4-yl}oxy)phenyl]-4-isopropoxypyridine-3-carboxamide], the concentration for half-maximal inhibition (IC50) in experiment [1] and in experiment [2] was at most 100 nM each time. Further, the concentration for a half-maximal effect (EC50) in experiment [3] and in experiment [4] was at most 100 nM each time.
Take `CNCCOc1cc2nccc(Oc3c(F)cc(NC(=O)c4cnccc4OC4COC4)cc3F)c2cc1OC` [Example 68, N-[3,5-difluoro-4-({6-methoxy-7-[2-(methylamino)ethoxy]quinolin-4-yl}oxy)phenyl]-4-(oxetan-3-yloxy)pyridine-3-carboxamide]: the IC50 in experiment [1] and in experiment [2] was at most 100 nM throughout. Moreover, the EC50 in experiment [3] was 100 to 1000 nM; in experiment [4], at most 100 nM.
For the molecule `C[C@@H](O)COc1ccc2c(Oc3c(F)cc(NC(=O)c4cnccc4OC4CC4)cc3F)ccnc2c1` [Example 101, 4-cyclopropoxy-N-[3,5-difluoro-4-({7-[(2R)-2-hydroxypropoxy]quinolin-4-yl}oxy)phenyl]pyridine-3-carboxamide], the IC50 in experiment [1] and in experiment [2] was at most 100 nM in each case. The EC50 in experiment [3] and in experiment [4] was 100 to 1000 nM in each case.
With `CCc1ccncc1C(=O)Nc1cc(F)c(Oc2ccnc3cc(OCCNC)c(OC)cc23)c(F)c1` [Example 49, N-(3,5-difluoro-4-((6-methoxy-7-(2-(methylamino)ethoxy)quinolin-4-yl)oxy)phenyl)-4-ethylpyridine-3-carboxamide], the IC50 in experiment [1] and in experiment [2] was at most 100 nM in each case. The EC50 in experiment [3] and in experiment [4] was 100 to 1000 nM throughout.
As for `CC(C)(O)COc1ccc2c(Oc3c(F)cc(NC(=O)c4cnccc4OC4CC4)cc3F)ccnc2c1` [Example 104, 4-cyclopropoxy-N-(3,5-difluoro-4-{[7-(2-hydroxy-2-methylpropoxy)quinolin-4-yl]oxy}phenyl)pyridine-3-carboxamide], the IC50 in experiment [1] and in experiment [2] was at most 100 nM throughout. Also, the EC50 in experiment [3] fell in the range of 1000 to 10000 nM; in experiment [4] it was 100 to 1000 nM.
In the case of `COc1cc2c(Oc3c(F)cc(NC(=O)c4cnccc4OC)cc3F)ccnc2cc1OCCCN1CCOCC1` [Example 30, N-(3,5-difluoro-4-((6-methoxy-7-(3-morpholinopropoxy)quinolin-4-yl)oxy)phenyl)-4-methoxypyridine-3-carboxamide], the IC50 in experiment [1] and in experiment [2] was at most 100 nM in each case. In addition, the concentration giving a half-maximal response (EC50) in experiment [3] and in experiment [4] was at most 100 nM throughout.
`COc1cc2nccc(Oc3c(F)cc(NC(=O)c4cnccc4OC4CC4)cc3F)c2cn1` [Example 96, 4-cyclopropoxy-N-{3,5-difluoro-4-[(7-methoxy-1,6-naphthyridin-4-yl)oxy]phenyl}pyridine-3-carboxamide]: the half-maximal inhibitory concentration (IC50) in experiment [1] and in experiment [2] was at most 100 nM throughout. Further, the EC50 in experiment [3] and in experiment [4] was 100 to 1000 nM in each case.
In the case of `CNCCOc1ccc2c(Oc3c(F)cc(NC(=O)c4c(OC)ccnc4F)cc3F)ccnc2c1` [Example 9, N-(3,5-difluoro-4-((7-(2-(methylamino)ethoxy)quinolin-4-yl)oxy)phenyl)-2-fluoro-4-methoxypyridine-3-carboxamide], the IC50 in experiment [1] and in experiment [2] was at most 100 nM each time. The figures for the EC50 in experiment [3] and in experiment [4] were 100 to 1000 nM and at most 100 nM, respectively.
For `CNCCCOc1cc2nccc(Oc3c(F)cc(NC(=O)c4cnccc4OC4CCC4)cc3F)c2cc1OC` [Example 85, 4-cyclobutoxy-N-(3,5-difluoro-4-((6-methoxy-7-(3-(methylamino)propoxy)quinolin-4-yl)oxy)phenyl)pyridine-3-carboxamide], the IC50 in experiment [1] and in experiment [2] was at most 100 nM each time. Further, the EC50 in experiment [3] and in experiment [4] was 100 to 1000 nM in each case.
Turning to `COc1cc2nccc(Oc3c(F)cc(NC(=O)c4cnccc4OC4CC4)c(F)c3F)c2cc1OC` [Example 92, 4-cyclopropoxy-N-{4-[(6,7-dimethoxyquinolin-4-yl)oxy]-2,3,5-trifluorophenyl}pyridine-3-carboxamide], the IC50 in experiment [1] and in experiment [2] was at most 100 nM each time. The EC50 in experiment [3] and in experiment [4] was 100 to 1000 nM each time.
For `C[C@H](O)COc1ccc2c(Oc3c(F)cc(NC(=O)c4cnccc4OC4CC4)cc3F)ccnc2c1` [Example 102, 4-cyclopropoxy-N-[3,5-difluoro-4-({7-[(2S)-2-hydroxypropoxy]quinolin-4-yl}oxy)phenyl]pyridine-3-carboxamide], the IC50 in experiment [1] and in experiment [2] was at most 100 nM throughout. The EC50 in experiment [3] and in experiment [4] was 100 to 1000 nM each time.
Regarding `CNCCOc1cc2nccc(Oc3c(F)cc(NC(=O)c4cnc(Cl)cc4OC4CC4)cc3F)c2cc1OC` [Example 112, 6-chloro-4-cyclopropoxy-N-[3,5-difluoro-4-({6-methoxy-7-[2-(methylamino)ethoxy]quinolin-4-yl}oxy)phenyl]pyridine-3-carboxamide], the IC50 in experiment [1] and in experiment [2] was at most 100 nM throughout. Further, the EC50 in experiment [3] and in experiment [4] was 100 to 1000 nM throughout.
For the molecule `CNCCOc1cc2nccc(Oc3ccc(NC(=O)c4cnc(N)cc4OC)c(F)c3F)c2cc1OC` [Example 33, 6-amino-N-[2,3-difluoro-4-({6-methoxy-7-[2-(methylamino)ethoxy]quinolin-4-yl}oxy)phenyl]-4-methoxypyridine-3-carboxamide], the IC50 in experiment [1] and in experiment [2] was at most 100 nM in each case.
For the molecule `CNCCOc1cc2nccc(Oc3ccc(NC(=O)c4cnccc4OC4CC4)c(F)c3F)c2cc1OC` [Example 83, 4-cyclopropoxy-N-[2,3-difluoro-4-({6-methoxy-7-[2-(methylamino)ethoxy]quinolin-4-yl}oxy)phenyl]pyridine-3-carboxamide], the IC50 in experiment [1] and in experiment [2] was at most 100 nM in each case.
Turning to `CCOc1ccncc1C(=O)Nc1cc(F)c(Oc2ccnc3cc(OCCNC)ccc23)c(F)c1` [Example 11, N-(3,5-difluoro-4-((7-(2-(methylamino)ethoxy)quinolin-4-yl)oxy)phenyl)-4-ethoxypyridine-3-carboxamide], the IC50 in experiment [1] and in experiment [2] was at most 100 nM throughout.
In the case of `CNCCOc1cc2nccc(Oc3ccc(NC(=O)c4cnccc4OC(F)F)c(F)c3F)c2cc1OC` [Example 48, N-[2,3-difluoro-4-({6-methoxy-7-[2-(methylamino)ethoxy]quinolin-4-yl}oxy)phenyl]-4-(difluoromethoxy)pyridine-3-carboxamide], the IC50 in experiment [1] and in experiment [2] was at most 100 nM in each case.
For the molecule `CNCCOc1cc2nccc(Oc3cc(F)c(NC(=O)c4cnc(Cl)cc4OC)cc3F)c2cc1OC` [Example 26, 6-chloro-N-[2,5-difluoro-4-({6-methoxy-7-[2-(methylamino)ethoxy]quinolin-4-yl}oxy)phenyl]-4-methoxypyridine-3-carboxamide], the IC50 in experiment [1] and in experiment [2] was at most 100 nM in each case.
